Article PMC11432624
≈ marks a conversion by molar mass, not a printed value. Where “and” joins values, the source holds several entries; their conditions need not be identical. Identical values can stand only once. Like-named read-outs stand apart in the source and are kept apart here. Starred links: 1 amine or outer side, 2 acyl side, 3 side chain; linkers in the order of their positions; H or OH if unused. Positions of bridges follow the written chain, without caps; N, C: chain ends. Non-standard residues stand in square brackets, D forms with d. Residues, ends and D or L forms follow the SMILES beside them. No end group written: not given here. *: point of attachment. hTyr(3S-OH,4S-OH,3'-OSO3H) = N[C@H](C(=O)O)[C@H](O)[C@@H](O)c1ccc(O)c(OS(=O)(=O)O)c1; pTerphenylCO(4''-OnC5H11) = CCCCCOc1ccc(-c2ccc(-c3ccc(C(=O)*)cc3)cc2)cc1; Orn(4R-OH,5R-OH) = O=C([C@H](C[C@@H](O)[C@@H](O)N[*:3])N[*:1])[*:2]; hTyr(3S-OH,4S-OH) = N[C@H](C(=O)O)[C@H](O)[C@@H](O)c1ccc(O)cc1; Pro(3S-OH,4S-Me) = C[C@H]1CN[C@H](C(=O)O)[C@H]1O; X1 = CCCCCOc1ccc(-c2cc(-c3ccc(C(=O)*)cc3)no2)cc1; Gln(3R-OH) = NC(=O)C[C@@H](O)[C@H](N)C(=O)O; Hyp = O=C(O)[C@@H]1C[C@@H](O)CN1

What was measured:
[1] = tested on: Candida albicans 9.1; assay: Sensitivity of clinical isolates to conventional antimycotics (broth dilution MIC); conditions: Candida albicans, 9.1, read-out: MICs
[2] = tested on: Candida albicans v47a3; assay: as above; conditions: V47A3, read-out: MICs
[3] = tested on: C. albicans ATCC 18804; assay: microbe, parasite or virus in culture; assay type: cell-based
Description: (§1) Antifungal activity of the recombinant peptides was studied against collection strains of Candida albicans ATCC 18804 and ATCC 10231, clinical isolates of C. albicans v47a3 and 9.1, clinical isolates of C. krusei 225/2, C. glabrata 252/2 and C. tropicalis v13a4/2 isolated from the patients with human immunodeficiency virus (HIV) infection and provided by the G.N. Gabrichevsky Research Institute for Epidemiology and Microbiology (Moscow, Russia). C. albicans ATCC 18804 and v47a3, C. krusei 225/2, C. glabrata 252/2 and C. tropicalis v13a4/2 were characterized as sensitive to antimycotics yeast strains, while C. albicans ATCC 10231 and 9.1 were resistant to azoles. C. albicans ATCC 10231 was also resistant to anidulafungin (Supplementary Materials, Tables S4 and S6).
(§2) The study was carried out in Sabouraud broth using 96-well microplates. Yeast cells at a concentration of 4 × 10^4 cells/mL were mixed with equal volumes of two-fold dilutions of peptides in water, starting with a maximum concentration of 32 μM. Control wells without peptides were also used. Microplates were incubated at 30 °C for 24 h after that yeast growth was estimated using an inverted microscope and by measuring the optical density at 630 nm. MIC was defined as minimal peptide concentration, inhibiting fungal growth by 100%. To determine whether the peptides act fungicidal or fungistatic, the contents of the wells of the plate with peptide concentrations equal to MIC and higher were sown on Sabouraud agar and incubated at 37 °C for 24 h. MFC was defined as minimal peptide concentration, ensuring the death of all fungal cells. FI was defined as the fungicide index, equal to the MFC/MIC ratio and indicating the severity of the fungicidal action of the peptide. […] Either 150 mM NaCl, 1.25 mM MgCl2, 1.25 mM CaCl2 or 10% fetal bovine serum (FBS) was added to Sabouraud broth to estimate the influence of various salts and serum on the antifungal activity of peptides tested.

[4] = tested on: C. krusei 225/2; assay type: cell-based; conditions: 225/2, 24 h
Description: as §1, §2

[5] = tested on: C. albicans ATCC 10231; assay type: cell-based; conditions: ATCC 10231, 24 h
Description: as §1, §2

[6] = tested on: C. tropicalis v13a4/2; assay type: cell-based; conditions: v13a4/2, 24 h
Description: as §1, §2

[7] = tested on: C. glabrata 252/2; assay type: cell-based; conditions: 252/2, 24 h
Description: as §1, §2

[8] = tested on: C. albicans v47a; assay type: cell-based; conditions: 24 h
Description: as §1, §2

[9] = tested on: C. albicans 9.1; assay type: cell-based; conditions: 9.1, 24 h
Description: as §1, §2

[10] = not given; remark: listed apart in the source
[11] = tested on: human red blood cells; set-up: method as in PMID 36557160; conditions: cited from earlier work
[12] = target: pepsin (Sus scrofa, UniProt P00791); conditions: 50 ng pepsin per 1 μg peptide, 0.05 M HCl pH~1.3, peptide 0.5 mg/mL, 37 °C, after 2 h, SDS-PAGE densitometry
Chain of pepsin (P00791 60-385): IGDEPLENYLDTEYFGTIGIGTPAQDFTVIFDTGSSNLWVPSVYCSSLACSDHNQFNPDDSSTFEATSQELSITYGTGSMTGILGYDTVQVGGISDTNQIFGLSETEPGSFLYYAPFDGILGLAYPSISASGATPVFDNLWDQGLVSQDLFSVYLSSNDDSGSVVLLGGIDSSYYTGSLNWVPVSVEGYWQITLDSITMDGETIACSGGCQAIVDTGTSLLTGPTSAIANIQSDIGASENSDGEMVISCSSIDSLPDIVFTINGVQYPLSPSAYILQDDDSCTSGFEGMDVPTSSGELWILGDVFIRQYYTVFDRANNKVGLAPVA
Description: Gastric digestion was performed using 50 ng of pepsin per 1 μg of acidocin A in 0.05 M HCl (pH~1.3). […] The concentration of the peptide was 0.5 mg/mL in both cases. The reaction mixtures were incubated at 37 °C for 2 h and the aliquots were taken at 5 min, 30 min and 2 h after the start of incubation, immediately mixed with the sample buffer containing 4% SDS, and heated for 5 min at 80 °C to ensure protease inactivation. The degree of proteolysis was monitored by Laemmli SDS-PAGE in 18%T 3%C polyacrylamide gels by applying a volume of the mixture containing 1.5 μg of the peptide per lane.

Q: For `CCC(C)n1ncn(-c2ccc(N3CCN(c4ccc(OCC5COC(Cn6cncn6)(c6ccc(Cl)cc6Cl)O5)cc4)CC3)cc2)c1=O` (stereo not drawn) [Itraconazole], which MIC [1] is on record?
A: 16 µg/mL (≈ 22.7 µM)

Q: What about the MIC [2] of the same compound?
A: 0.12 µg/mL (≈ 0.17 µM)

Q: For `CC[C@H](C)C[C@H](C)CCCCCCCCC(=O)N[C@H]1C[C@@H](O)[C@@H](NCCN)NC(=O)[C@@H]2[C@@H](O)CCN2C(=O)[C@H]([C@H](O)CCN)NC(=O)[C@H]([C@H](O)[C@@H](O)c2ccc(O)cc2)NC(=O)[C@@H]2C[C@@H](O)CN2C(=O)[C@H]([C@@H](C)O)NC1=O` [Caspofungin], which MIC [1] is on record?
A: 0.12 µg/mL (≈ 0.11 µM)

Q: And the MIC [2]?
A: 0.06 µg/mL (≈ 0.0549 µM)

Q: For `CCCCCOc1ccc(-c2cc(-c3ccc(C(=O)N[C@H]4C[C@@H](O)[C@@H](O)NC(=O)[C@@H]5[C@@H](O)[C@@H](C)CN5C(=O)[C@H]([C@H](O)CC(N)=O)NC(=O)[C@H]([C@H](O)[C@@H](O)c5ccc(O)c(OS(=O)(=O)O)c5)NC(=O)[C@@H]5C[C@@H](O)CN5C(=O)[C@H]([C@@H](C)O)NC4=O)cc3)no2)cc1` [Micafungin] (X1-[Orn(4R-OH,5R-OH)]T[Hyp][hTyr(3S-OH,4S-OH,3'-OSO3H)][Gln(3R-OH)][Pro(3S-OH,4S-Me)]; lactam 1-C), which MIC [1] is on record?
A: 0.015 µg/mL (≈ 0.0118 µM)

Q: And the MIC [2]?
A: 0.008 µg/mL (≈ 0.0063 µM)

Q: Which MFC ([3]; ATCC 18804, 24 h) does the source give for “KTHYPTNAWKSLWKGFWESLRYTDGF [Acidocin 8912]” here?
A: >32 µM

Q: What about the MIC ([3]; ATCC 18804, 24 h) of the same compound?
A: 32 µM

Q: And the MFC [4]?
A: 32 µM

Q: And the MIC [4]?
A: 32 µM

Q: And the MFC [5]?
A: 32 µM

Q: And the MIC [5]?
A: 16 µM

Q: And the MFC [6]?
A: 16 µM

Q: And the MIC [6]?
A: 16 µM

Q: And the MFC [7]?
A: 16 µM

Q: What about the MIC [7] of the same compound?
A: 16 µM

Q: And the MFC [8]?
A: >32 µM

Q: And the MIC [8]?
A: 16 µM

Q: And the MFC [9]?
A: 32 µM

Q: And the MIC [9]?
A: 16 µM

Q: And the Random?
A: 28.9% and 31.2% and 20.3%

Q: What about the β-Turn [10] of the same compound?
A: 23.9% and 17% and 22.4%

Q: For `CC[C@@H]([C@H](C)O)n1ncn(-c2ccc(N3CCN(c4ccc(OC[C@@H]5CO[C@@](Cn6cncn6)(c6ccc(F)cc6F)C5)cc4)CC3)cc2)c1=O` [Posaconazole], which MIC [1] is on record?
A: 8 µg/mL (≈ 11.4 µM)

Q: What about the MIC [2] of the same compound?
A: 0.12 µg/mL (≈ 0.171 µM)

Q: Which MIC [1] does the source give for `Nc1[nH]c(=O)ncc1F` [Flucytosine] here?
A: 0.06 µg/mL (≈ 0.465 µM)

Q: What about the MIC [2] of the same compound?
A: 0.06 µg/mL (≈ 0.465 µM)

Q: With `CCCCCOc1ccc(-c2ccc(-c3ccc(C(=O)N[C@H]4C[C@@H](O)[C@@H](O)NC(=O)[C@@H]5[C@@H](O)[C@@H](C)CN5C(=O)[C@H]([C@@H](C)O)NC(=O)[C@H]([C@H](O)[C@@H](O)c5ccc(O)cc5)NC(=O)[C@@H]5C[C@@H](O)CN5C(=O)[C@H]([C@@H](C)O)NC4=O)cc3)cc2)cc1` [Anidulafungin] ({pTerphenylCO(4''-OnC5H11)}-[Orn(4R-OH,5R-OH)]T[Hyp][hTyr(3S-OH,4S-OH)]T[Pro(3S-OH,4S-Me)]; lactam 1-C) as the compound, how does the MIC [1] read?
A: 0.06 µg/mL (≈ 0.0526 µM)

Q: And the MIC [2]?
A: 0.03 µg/mL (≈ 0.0263 µM)

Q: For “KTYYGTNGVHCTKKSLWGKVRLKNVIPGTLCRKQSLPIKQDLKILLGWATGAFGKTFH (disulfide 11-31) [Acidocin A]”, which HC10 [11] is on record?
A: > 128 µM

Q: And the MFC ([3]; ATCC 18804, 24 h)?
A: 8 µM

Q: And the MIC ([3]; ATCC 18804, 24 h)?
A: 4 µM

Q: And the MFC [4]?
A: 8 µM

Q: What about the MIC [4] of the same compound?
A: 8 µM

Q: What about the MFC [5] of the same compound?
A: 16 µM

Q: And the MIC [5]?
A: 8 µM

Q: And the MFC [6]?
A: 4 µM

Q: And the MIC [6]?
A: 4 µM

Q: And the MFC [7]?
A: 4 µM

Q: And the MIC [7]?
A: 4 µM

Q: What about the MFC [8] of the same compound?
A: 4 µM

Q: What about the MIC [8] of the same compound?
A: 4 µM

Q: What about the MFC [9] of the same compound?
A: 16 µM

Q: What about the MIC [9] of the same compound?
A: 4 µM

Q: And the Random (cited from earlier work)?
A: 28.6% and 37.9% and 28.8%

Q: What about the β-Turn ([10]; cited from earlier work) of the same compound?
A: 20.3% and 19.2% and 22.6%

Q: What about the “resistance to pepsin (amount remaining)” value [12] of the same compound?
A: more than half of the initial amount was retained

Q: Which results are given for `OC(Cn1cncn1)(Cn1cncn1)c1ccc(F)cc1F` [Fluconazole]?
A: MIC [1]: 256 µg/mL (≈ 836 µM); MIC [2]: 8 µg/mL (≈ 26.1 µM)

Q: For `C[C@@H]1[C@H](O)[C@@H](C)/C=C/C=C/C=C/C=C/C=C/C=C/C=C/[C@H](O[C@@H]2O[C@H](C)[C@@H](O)[C@H](N)[C@@H]2O)C[C@@H]2O[C@](O)(C[C@@H](O)C[C@@H](O)[C@H](O)CC[C@@H](O)C[C@@H](O)CC(=O)O[C@H]1C)C[C@H](O)[C@H]2C(=O)O` [Amphotericin B, reference compound], which “concentration with fungicidal effect (2 × MIC)” value ([3]; C. albicans ATCC 18804, antifungal activity assay) is on record?
A: 1 µg/mL

Q: What about the MIC ([3]; Candida albicans, ATCC18804, C. albicans ATCC 18804, wells previously blocked with 0.1% BSA, read-out: MIC) of the same compound?
A: 0.5 µg/mL

Q: What about the MIC [1] of the same compound?
A: 1 µg/mL (≈ 1.08 µM)

Q: And the MIC [2]?
A: 0.5 µg/mL (≈ 0.541 µM)

Q: Which MIC [1] does the source give for `C[C@@H](c1ncncc1F)[C@](O)(Cn1cncn1)c1ccc(F)cc1F` [Voriconazole] here?
A: 8 µg/mL (≈ 22.9 µM)

Q: What about the MIC [2] of the same compound?
A: 0.5 µg/mL (≈ 1.43 µM)
